Experimental findings from US20120245137A1 (Zalicus Pharmaceuticals Ltd., priority 2009, published 2012) are described below.

As usually defined, the IC50 is the midpoint of a concentration-inhibition curve.

Molecules are shown by their SMILES. Read-outs that look alike come from different tables or passages of the source.

Common to all, as to type: cell-based
One experiment addresses Human Cav 2.2 channels (Homo sapiens, UniProt Q00975). The experiment can be described thus: Fluorescent assay for CaV2.2 channels using potassium depolarization (VIPR/FLIPR). The note with it: FLIPR data. Summed up:
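Fluo-4 calcium fluorescence (480/535 nm) was recorded on VIPR or FLIPR after depolarization to 70 mM final potassium. Before this, cells were preincubated 30 min at 25 °C with compound in 4–30 mM potassium, so that state-dependent block could be assessed; the cells were HEK293 coexpressing Cav2.2, α2δ, β and Kir2.3.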

In experiment [1] the target is T-type calcium channel (Homo sapiens, UniProt O43497). The experiment can be described thus: T-type channel blocking, FLIPR data (Table 6). The note with it: CAv3.1. The text has this: (§1) Another method, high-throughput spectrophotometric assay, utilizes loading of the cell lines with a fluorescent dye sensitive to intracellular calcium concentration and subsequent examination of the effects of compounds on the ability of depolarization by potassium chloride or other means to alter intracellular calcium levels.

For experiment [2], the target named is T-type calcium channel (Homo sapiens, UniProt O95180). The experiment can be described thus: T-type channel blocking, FLIPR data (Table 6). The note with it: for CAv3.2 IC50 Ratio closed/inact.: CAv3.2, ratio closed/inact.
Excerpt: as §1

The next experiment concerns the target CAv1.2 (Homo sapiens, UniProt Q13936). The experiment is described as follows: L-type (CAv1.2) channel blocking, FLIPR data (Table 6).
[3] abbreviates: closed state, read-out: CAv2.2 IC50 Closed.
The mark [4] stands for this setting: inactivated state, read-out: CAv2.2 IC50 Inact.
Where [5] appears, read: CAv3.2, closed state, read-out: CAv3.2 IC50 Closed.
The mark [6] stands for this setting: CAv3.2, inactivated state, read-out: CAv3.2 IC50 Inact.
[7] abbreviates: closed state, read-out: CAv1.2 IC50 Closed.
Where [8] appears, read: inactivated state, read-out: CAv1.2 IC50 Inact.

Human Cav 2.2 channels, sequence (Q00975 whole entry): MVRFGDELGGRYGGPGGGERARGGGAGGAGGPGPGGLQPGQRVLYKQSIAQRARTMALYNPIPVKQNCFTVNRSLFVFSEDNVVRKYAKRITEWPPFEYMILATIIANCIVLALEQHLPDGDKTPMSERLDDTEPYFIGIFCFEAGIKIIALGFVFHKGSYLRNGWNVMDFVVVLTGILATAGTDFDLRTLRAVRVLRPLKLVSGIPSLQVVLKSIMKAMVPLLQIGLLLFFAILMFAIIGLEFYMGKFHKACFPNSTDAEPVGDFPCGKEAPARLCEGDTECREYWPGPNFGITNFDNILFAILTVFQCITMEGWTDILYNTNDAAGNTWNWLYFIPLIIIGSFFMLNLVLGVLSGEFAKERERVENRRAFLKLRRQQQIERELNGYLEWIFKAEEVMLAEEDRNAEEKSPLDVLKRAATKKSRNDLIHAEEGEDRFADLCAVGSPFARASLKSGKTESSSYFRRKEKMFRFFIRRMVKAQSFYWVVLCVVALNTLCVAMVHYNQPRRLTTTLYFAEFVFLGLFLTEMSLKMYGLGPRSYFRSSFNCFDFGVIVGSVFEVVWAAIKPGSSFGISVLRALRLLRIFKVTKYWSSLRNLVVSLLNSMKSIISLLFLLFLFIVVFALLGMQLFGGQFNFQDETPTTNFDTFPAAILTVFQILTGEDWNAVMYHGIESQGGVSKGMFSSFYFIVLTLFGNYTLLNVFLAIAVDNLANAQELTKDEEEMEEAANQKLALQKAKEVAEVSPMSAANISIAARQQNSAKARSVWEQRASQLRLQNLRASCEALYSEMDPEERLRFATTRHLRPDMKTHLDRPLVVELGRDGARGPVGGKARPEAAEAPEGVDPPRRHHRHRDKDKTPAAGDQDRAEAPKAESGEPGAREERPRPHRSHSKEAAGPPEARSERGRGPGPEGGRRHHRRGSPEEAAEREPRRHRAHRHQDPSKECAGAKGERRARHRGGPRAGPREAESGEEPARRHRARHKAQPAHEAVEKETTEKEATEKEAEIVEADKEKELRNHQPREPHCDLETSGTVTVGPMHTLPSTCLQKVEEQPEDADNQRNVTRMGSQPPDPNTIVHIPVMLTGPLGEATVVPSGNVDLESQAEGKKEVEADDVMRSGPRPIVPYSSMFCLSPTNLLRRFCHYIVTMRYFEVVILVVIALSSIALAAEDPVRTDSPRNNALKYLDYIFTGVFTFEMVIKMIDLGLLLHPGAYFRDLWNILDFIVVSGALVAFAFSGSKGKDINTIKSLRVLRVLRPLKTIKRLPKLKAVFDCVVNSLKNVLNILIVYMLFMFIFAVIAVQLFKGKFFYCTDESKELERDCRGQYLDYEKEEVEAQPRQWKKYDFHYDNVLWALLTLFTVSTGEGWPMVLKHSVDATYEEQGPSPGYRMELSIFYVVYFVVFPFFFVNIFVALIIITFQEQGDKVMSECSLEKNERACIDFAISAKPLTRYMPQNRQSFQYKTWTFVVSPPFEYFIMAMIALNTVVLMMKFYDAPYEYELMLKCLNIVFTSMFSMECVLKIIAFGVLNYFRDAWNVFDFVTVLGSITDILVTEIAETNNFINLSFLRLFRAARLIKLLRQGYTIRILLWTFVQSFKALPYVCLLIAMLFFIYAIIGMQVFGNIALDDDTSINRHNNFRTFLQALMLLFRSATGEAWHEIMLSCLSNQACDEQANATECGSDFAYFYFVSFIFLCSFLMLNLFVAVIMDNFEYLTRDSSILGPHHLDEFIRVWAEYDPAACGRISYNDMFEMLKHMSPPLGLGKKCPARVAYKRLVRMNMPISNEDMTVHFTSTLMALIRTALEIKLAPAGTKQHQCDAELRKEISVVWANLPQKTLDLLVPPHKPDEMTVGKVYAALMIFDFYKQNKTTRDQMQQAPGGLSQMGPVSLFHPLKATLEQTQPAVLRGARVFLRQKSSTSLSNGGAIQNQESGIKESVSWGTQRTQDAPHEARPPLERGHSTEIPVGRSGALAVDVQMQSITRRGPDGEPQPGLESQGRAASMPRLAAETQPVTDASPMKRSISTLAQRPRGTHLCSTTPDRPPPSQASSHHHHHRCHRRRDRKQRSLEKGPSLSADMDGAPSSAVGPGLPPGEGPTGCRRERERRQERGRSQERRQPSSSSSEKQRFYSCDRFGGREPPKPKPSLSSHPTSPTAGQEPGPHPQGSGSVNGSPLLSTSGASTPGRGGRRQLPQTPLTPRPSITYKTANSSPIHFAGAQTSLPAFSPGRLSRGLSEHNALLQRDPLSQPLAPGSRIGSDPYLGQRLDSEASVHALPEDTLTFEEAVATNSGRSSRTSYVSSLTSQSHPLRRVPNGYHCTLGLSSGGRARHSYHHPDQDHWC
Human Cav 2.2 channels, sequence (P54289 25-1103 partner): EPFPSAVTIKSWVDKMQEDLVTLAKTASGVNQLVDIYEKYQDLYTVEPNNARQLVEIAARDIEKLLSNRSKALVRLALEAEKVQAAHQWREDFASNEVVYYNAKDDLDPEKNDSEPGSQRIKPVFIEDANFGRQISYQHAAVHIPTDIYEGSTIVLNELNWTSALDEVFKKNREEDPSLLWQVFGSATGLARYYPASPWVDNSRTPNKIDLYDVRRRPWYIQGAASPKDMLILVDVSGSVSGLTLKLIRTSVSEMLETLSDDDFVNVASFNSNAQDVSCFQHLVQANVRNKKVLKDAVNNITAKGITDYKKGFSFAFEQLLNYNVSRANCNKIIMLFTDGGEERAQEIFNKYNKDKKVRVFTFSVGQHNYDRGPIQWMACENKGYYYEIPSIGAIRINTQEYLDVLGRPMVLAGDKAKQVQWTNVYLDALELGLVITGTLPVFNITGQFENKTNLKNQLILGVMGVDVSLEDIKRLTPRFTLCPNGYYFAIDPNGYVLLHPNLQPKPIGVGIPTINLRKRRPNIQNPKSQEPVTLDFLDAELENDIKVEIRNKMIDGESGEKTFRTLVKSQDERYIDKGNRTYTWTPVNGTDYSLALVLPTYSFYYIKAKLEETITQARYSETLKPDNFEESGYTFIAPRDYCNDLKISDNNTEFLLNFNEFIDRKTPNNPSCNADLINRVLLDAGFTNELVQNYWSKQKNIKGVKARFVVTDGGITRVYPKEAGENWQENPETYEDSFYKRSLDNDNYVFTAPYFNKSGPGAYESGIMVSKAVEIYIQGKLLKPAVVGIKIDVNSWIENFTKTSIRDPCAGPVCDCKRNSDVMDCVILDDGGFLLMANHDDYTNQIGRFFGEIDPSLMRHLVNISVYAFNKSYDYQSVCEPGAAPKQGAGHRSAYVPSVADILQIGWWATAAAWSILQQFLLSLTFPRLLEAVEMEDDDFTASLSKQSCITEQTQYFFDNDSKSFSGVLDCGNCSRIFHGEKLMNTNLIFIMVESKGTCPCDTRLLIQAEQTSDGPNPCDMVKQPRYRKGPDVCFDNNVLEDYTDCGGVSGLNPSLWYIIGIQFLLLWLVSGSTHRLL
Human Cav 2.2 channels, sequence (P54284 whole entry partner): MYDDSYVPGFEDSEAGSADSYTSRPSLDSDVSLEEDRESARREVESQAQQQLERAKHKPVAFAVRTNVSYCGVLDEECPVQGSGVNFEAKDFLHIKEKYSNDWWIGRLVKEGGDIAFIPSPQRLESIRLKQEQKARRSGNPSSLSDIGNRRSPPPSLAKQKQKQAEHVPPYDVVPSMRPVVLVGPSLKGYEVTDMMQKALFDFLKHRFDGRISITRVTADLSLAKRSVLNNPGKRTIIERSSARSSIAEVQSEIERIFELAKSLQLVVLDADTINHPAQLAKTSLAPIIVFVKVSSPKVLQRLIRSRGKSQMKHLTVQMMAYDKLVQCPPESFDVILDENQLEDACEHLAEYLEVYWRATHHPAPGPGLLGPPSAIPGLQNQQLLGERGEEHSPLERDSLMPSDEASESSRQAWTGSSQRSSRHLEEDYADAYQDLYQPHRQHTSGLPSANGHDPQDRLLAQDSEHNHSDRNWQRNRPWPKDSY

Consider `CC(C)(C[C@H]1C[C@@H](NC(=O)[C@@H]2CCCC[C@@H]2N)C1)S(=O)(=O)c1cccc(C(F)(F)F)c1` [Compound 740], for which the IC50 was 3.91 µM on Human Cav 2.2 channels (setting [3]); 0.85 µM on Human Cav 2.2 channels (setting [4]); no less than 10 µM at T-type calcium channel [1]; no less than 10 µM on T-type calcium channel [2] (setting [5]); 10 µM at T-type calcium channel [2] (setting [6]); no less than 10 µM at CAv1.2 (setting [7]). Besides, at CAv1.2 (setting [8]), the IC50 is no less than 10 µM. Moreover, the “CAv2.2 IC50 Ratio closed/inact.” value on Human Cav 2.2 channels came to 4.6. At T-type calcium channel [2], the “CAv3.2 IC50 Ratio closed/inact.” value came to 1.

In the case of `CC(C)(C[C@H]1C[C@@H](NC(=O)[C@@H]2CCCC[C@H]2N)C1)S(=O)(=O)c1cccc(C(F)(F)F)c1` [Compound 741], the IC50 at Human Cav 2.2 channels (setting [3]) is 3.86 µM; at Human Cav 2.2 channels (setting [4]), 1.31 µM; on T-type calcium channel [1], no less than 10 µM; on T-type calcium channel [2] (setting [5]), no less than 10 µM; at T-type calcium channel [2] (setting [6]), 10 µM; at CAv1.2 (setting [7]), no less than 10 µM. Besides, the IC50 on CAv1.2 (setting [8]) was no less than 10 µM. On Human Cav 2.2 channels, the “CAv2.2 IC50 Ratio closed/inact.” value was found to be 2.9. On T-type calcium channel [2], the “CAv3.2 IC50 Ratio closed/inact.” value is on record as 1.

With `CC(C)(C[C@H]1C[C@@H](NC(=O)[C@H]2CCCC[C@H]2N)C1)S(=O)(=O)c1cccc(C(F)(F)F)c1` [Compound 744], the IC50 at Human Cav 2.2 channels (setting [3]) was 4.11 µM; at Human Cav 2.2 channels (setting [4]) it was 0.94 µM; on T-type calcium channel [1] it was no less than 10 µM; at T-type calcium channel [2] (setting [5]), no less than 10 µM; at CAv1.2 (setting [7]), no less than 10 µM; on CAv1.2 (setting [8]), no less than 10 µM. Moreover, at Human Cav 2.2 channels, the “CAv2.2 IC50 Ratio closed/inact.” value came out at 4.4.

For the compound `CC(C)(C[C@H]1C[C@@H](NC(=O)[C@H]2CCCC[C@@H]2N)C1)S(=O)(=O)c1cccc(C(F)(F)F)c1` [Compound 745], the IC50 at Human Cav 2.2 channels (setting [3]) is 4.22 µM; on Human Cav 2.2 channels (setting [4]), 1.21 µM; on T-type calcium channel [1], no less than 10 µM; at T-type calcium channel [2] (setting [5]) it was no less than 10 µM; on T-type calcium channel [2] (setting [6]) it was 10 µM; on CAv1.2 (setting [7]), 8.68 µM. On CAv1.2 (setting [8]), the IC50 is no less than 10 µM. In addition, the “CAv2.2 IC50 Ratio closed/inact.” value at Human Cav 2.2 channels was 3.5. Moreover, the “CAv3.2 IC50 Ratio closed/inact.” value at T-type calcium channel [2] was 1. Besides, on CAv1.2, the “CAv1.2 IC50 Ratio closed/inact.” value amounted to 0.9.

For `O=C(c1ccc(OCC(F)(F)F)nc1)N1CC(CS(=O)(=O)c2cc(F)cc(C(F)(F)F)c2)C1` [Compound 747], the IC50 was 10 µM at Human Cav 2.2 channels (setting [3]); 5.05 µM at Human Cav 2.2 channels (setting [4]); no less than 10 µM on T-type calcium channel [1]; 9.95 µM at T-type calcium channel [2] (setting [5]); 5.57 µM on T-type calcium channel [2] (setting [6]); no less than 10 µM on CAv1.2 (setting [7]). The IC50 at CAv1.2 (setting [8]) is 8.8 µM. Also, the “CAv2.2 IC50 Ratio closed/inact.” value at Human Cav 2.2 channels was 2. The “CAv3.2 IC50 Ratio closed/inact.” value at T-type calcium channel [2] is on record as 1.8. For the same compound, the “CAv1.2 IC50 Ratio closed/inact.” value on CAv1.2 is listed as 1.1.

As for `O=C(NC[C@H]1C[C@H](S(=O)(=O)c2cccc(Cl)c2)C1)c1ccc(C(F)(F)F)cn1` [Compound 774], the IC50 at Human Cav 2.2 channels (setting [3]) was 9.98 µM; at Human Cav 2.2 channels (setting [4]), 4.32 µM; on T-type calcium channel [2] (setting [5]), 6.63 µM; on T-type calcium channel [2] (setting [6]) it was 10 µM; at CAv1.2 (setting [7]), no less than 10 µM; at CAv1.2 (setting [8]), 6.45 µM. In addition, at Human Cav 2.2 channels, the “CAv2.2 IC50 Ratio closed/inact.” value turned out to be 2.3. Besides, the “CAv3.2 IC50 Ratio closed/inact.” value on T-type calcium channel [2] came to 0.7. In addition, the “CAv1.2 IC50 Ratio closed/inact.” value at CAv1.2 worked out at 1.6.

As to `N[C@H]1CCCC[C@@H]1C(=O)NC[C@H]1C[C@H](S(=O)(=O)c2cccc(Cl)c2)C1` [Compound 779], the IC50 on Human Cav 2.2 channels (setting [3]) is 10 µM; on Human Cav 2.2 channels (setting [4]), no less than 10 µM; on T-type calcium channel [2] (setting [6]) it was 10 µM; at CAv1.2 (setting [7]) it was no less than 10 µM; on CAv1.2 (setting [8]), no less than 10 µM. In addition, the “CAv2.2 IC50 Ratio closed/inact.” value on Human Cav 2.2 channels was 1.

As for `N[C@@H]1CCCC[C@@H]1C(=O)NC[C@H]1C[C@H](S(=O)(=O)c2cccc(Cl)c2)C1` [Compound 780], the IC50 at Human Cav 2.2 channels (setting [3]) is 10 µM; at Human Cav 2.2 channels (setting [4]), no less than 10 µM; at T-type calcium channel [2] (setting [5]), no less than 10 µM; at CAv1.2 (setting [7]), no less than 10 µM; on CAv1.2 (setting [8]) it was no less than 10 µM. Moreover, the “CAv2.2 IC50 Ratio closed/inact.” value on Human Cav 2.2 channels turned out to be 1.
